Laboratory results taken from US20260115161A1, “2-HYDROXY-OCTADECENE-9-CIS-OATE FOR USE IN THE TREATMENT OF ONCOLOGICAL PATHOLOGIES AND NEUROPATHIC PAIN” (Laminar Pharmaceuticals S.A., priority 2023, published 2026).

Experiments:
U118 Glioblastoma = experiment: Cell line assay, HOCOS combinations, U118; assay type: cell-based; settings: Homo sapiens; U118, compound alone
Protocol: (§1) To study the possible use of HOCOS in combinatorial therapies, human glioblastoma cells of lines U118, SNB19, SF268, human mesothelioma cells NCI-H2021 and pancreatic cancer cells BxPC-3 (pancreatic adenocarcinoma) and MIAPaCa-2 ([…]) were cultured in the absence or presence of different chemotherapeutic agents and combinations of HOCOS with said compounds.

SNB19 Glioblastoma = experiment: cells; settings: Homo sapiens, SNB-19
Protocol: as §1

A549 Lung = experiment: Cell line assay, HOCOS combinations, A549; assay type: cell-based; settings: Homo sapiens; A549, compound alone
BxPC-3 Pancreas = experiment: Cell line assay, HOCOS combinations, BxPC-3; assay type: cell-based; settings: Homo sapiens; BxPC-3, compound alone
Protocol: as §1

[1] = tested on: neuropathic pain due to spinal cord injury; settings: Cardenas et al., cited from earlier work
NCI-H2021 Mesothelioma = experiment: Cell line assay, HOCOS combinations, NCI-H2021; assay type: cell-based, human; settings: NCI-H2021, compound alone
Protocol: as §1

With `CCc1c2c(nc3ccc(OC(=O)N4CCC(N5CCCCC5)CC4)cc13)-c1cc3c(c(=O)n1C2)COC(=O)[C@]3(O)CC` [Irinotecan] the IC50 (U118 Glioblastoma) was 15 µM.
`Cc1ncc(C[n+]2csc(CCO)c2C)c(N)n1` [Thiamine] gave an IC50 (SNB19 Glioblastoma) of 15400 µM.
`C#Cc1cccc(Nc2ncnc3cc(OCCOC)c(OCCOC)cc23)c1` [Erlotinib] showed an IC50 (A549 Lung) of 16 µM.
In the case of `Nc1ccn([C@@H]2O[C@H](CO)[C@@H](O)C2(F)F)c(=O)n1` [Gemcitabine], the IC50 (BxPC-3 Pancreas) is reported as 0.0078 µM.
In the case of `CC(C)C[C@H](CN)CC(=O)O` [pregabalin], the “percentage of patients responding, pregabalin group” value ([1]; 33% in the placebo group) is given as 48%, the “mean reduction of neuropathic pain” value [1] is given as 1.2 points on the VAS scale and the “patients responding to treatment” value [1] is given as “approximately 50%”. For the same compound, the “difference between pregabalin and placebo groups” value ([1]; VAS scale) was 0.82 points.
For `N.N.[Cl][Pt][Cl]` [Cisplatin], the IC50 (NCI-H2021 Mesothelioma) was 16.4 µM.
